# Data published in patent US20040002510A1, “Crystalline micronisate, process for the manufacture thereof and use thereof for the preparation of a medicament” (Boehringer Ingelheim Pharma GmbH & Co. KG, priority 2002, published 2004).
# Assays:
# [1] = Determining particle size by laser diffraction (Fraunhofer diffraction); type: physicochemical; conditions: air dispersal
# Source text: The micronisate of tiotropium bromide obtainable by the above method has a characteristic particle size X50 of between 1.0 μm and 3.5 μm, preferably between 1.1 μm and 3.3 μm, most preferably between 1.2 μm and 3.0 μm and Q(5.8) of more than 60%, preferably more than 70%, most preferably more than 80%. The characteristic value X50 denotes the median value of the particle size below which 50% of the particles fall, with regard to the distribution by volume of the individual particles. The characteristic value Q(5.8) corresponds to the quantity of particles below 5.8 μm , based on the volume distribution of the particles. The particle sizes were determined within the scope of the present invention by laser diffraction (Fraunhofer diffraction). More detailed information on this subject can be found in the experimental descriptions of the invention.
# D.2) Determining Particle Size by Laser Diffraction (Fraunhofer Diffraction)
# To determine the particle size the powder is fed into a laser diffraction spectrometer by means of a dispersing unit.
# [2] = Determining the heat of solution (enthalpy of solution) by solution calorimeter; type: physicochemical; conditions: chemically pure water, 25° C., mass corrected by water content
# Method: D.4) Determining the Heat of Solution (Enthalpy of Solution) Ec:
# The solution enthalpy is determined using a solution calorimeter 2225 Precision Solution Calorimeter made by Messrs. Thermometric. The heat of solution is calculated by means of the change in temperature occurring (as a result of the dissolving process) and the system-related change in temperature calculated from the base line. Before and after the ampoule is broken, electrical calibration is carried out with an integrated heating resistor of a precisely known power. A known heat output is delivered to the system over a set period and the jump in temperature is determined.
# The electrical calibration takes place during the measurement, once before and once after the breakage of the ampoule. The calibration after the breakage of the ampoule is used for the evaluation.
# As the mass of the tiotropium bromide micronisate weighed out has to be corrected by the water content of the material, the unsealed ampoules together with about 1 g of the test substance are left to stand open for at least 4 hours. After this equilibration time the ampoules are sealed with the silicon stoppers and the water content of the bulk sample is determined by Karl-Fischer titration. […]
# The corrected mass mc determined by this calculation is used as the input value (=weight) to calculate the solution enthalpy measured.
smiles,measurement,setting,value
"C[N+]1(C)C2C[C@H](OC(=O)C(O)(c3cccs3)c3cccs3)C[C@H]1[C@H]1OC21 (stereo partly drawn) [tiotropium bromide micronisate, (1α,2β,4β,5α,7β)-7-[(hydroxydi-2-thienylacetyl)oxy]-9,9-dimethyl-3-oxa-9-azoniatricyclo[3.3.1.0^2,4]nonane-bromide]","Q(5.8) (quantity of particles below 5.8 μm, based on the volume distribution)",[1],more than 60%
same,specific enthalpy of solution (heat of solution),[2],more than 65 Ws/g
